According to ChEMBL document CHEMBL5096162, “A review on ferulic acid and analogs based scaffolds for the management of Alzheimer's disease” (Eur J Med Chem, 2021):

Tests used:
Beta-secretase 1 = Beta-secretase 1 (Homo sapiens, UniProt P56817); experiment: Inhibition of human BACE-1 by FRET-based fluorometric assay
Cholinesterase [1] = biological target: T1, Cholinesterase (Homo sapiens, UniProt P06276); experiment: Inhibition of human BuchE using butyrylthiocholine iodide as substrate by Ellman colorimetric assay
Acetylcholinesterase [2] = biological target: T2, Acetylcholinesterase (Homo sapiens, UniProt P22303); experiment: Inhibition of human AchE using acetylthiocholine iodide as substrate by Ellman colorimetric assay
SH-SY5Y [3] = experiment: Neuroprotective activity against amyloid beta-induced cytotoxicity in human SH-SY5Y cells assessed as cell viability at 10 to 80 uM by MTT assay; type: functional; conditions: dose 10-80 µM
[4] = biological target: Amyloid-beta precursor protein (Homo sapiens) (UniProt P05067); experiment: Inhibition of amyloid beta (1 to 42) (unknown origin) self aggregation assessed as reduction in fluorescence intensity at 20 uM incubated for 24 hrs by ThT-based fluorimetric assay
[5] = biological target: Amyloid-beta precursor protein (Homo sapiens) (UniProt P05067); experiment: Inhibition of amyloid beta (1 to 42) (unknown origin) self aggregation assessed as reduction in fluorescence intensity at 80 uM incubated for 24 hrs by ThT-based fluorimetric assay
Acetylcholinesterase [6] = biological target: Acetylcholinesterase (Electrophorus electricus, UniProt O42275); experiment: Inhibition of electric eel AChE preincubated for 15 mins followed by substrate addition using acetylthiocholine iodide as substrate by Ellman's method
[7] = Antioxidant activity assessed as DPPH radical scavenging activity at 1 mM incubated for 30 mins by microplate reader method; type: functional
Cholinesterase [8] = biological target: T3, Cholinesterase (Equus caballus, UniProt P81908); experiment: Inhibition of equine serum BuChE preincubated for 5 mins followed by substrate addition and measured after 5 mins using S-butyrylthiocholine iodide as substrate by Ellman's method
HT-22 = experiment: Neuroprotection against iodoacetic acid-induced ATP depletion in mouse HT-22 cells assessed as increase in cell viability at 1 uM incubated for 2 hrs in medium with compound and iodoacetic acid followed by medium change with compound and measured after 24 hrs by MTT assay; type: functional; conditions: time 26 hrs
Cholinesterase [9] = biological target: T1, Cholinesterase; experiment: Inhibition of human BuchE preincubated for 30 mins followed by substrate addition using butyrylthiocholine iodide as substrate by Ellman's method
Cholinesterase [10] = biological target: T1, Cholinesterase
Description: Inhibition of human BuchE preincubated for 6 mins followed by substrate addition using butyrylthiocholine iodide as substrate by DTNB reagent based Ellman method

Cholinesterase [11] = biological target: T3, Cholinesterase; experiment: Inhibition of equine serum BuchE preincubated for 6 mins followed by substrate addition using butyrylthiocholine iodide as substrate by DTNB reagent based Ellman method
[12] = biological target: Amyloid-beta precursor protein (Homo sapiens) (UniProt P05067); experiment: Inhibition of self-induced amyloid beta (1 to 42) (unknown origin) aggregation at 20 uM incubated for 46 to 48 hrs in dark by ThT-based fluorimetric assay; conditions: time 46-48 hrs
[13] = Metal chelating activity assessed as Fe2+ -ferrozoine complex formation incubated for 10 mins followed by ferrozine addition and further incubated for 10 mins by spectrophotometric assay; conditions: time 20.0 min
[14] = Antioxidant activity assessed as DPPH radical scavenging activity incubated for 30 mins by UV-Vis spectrophotometric analysis; type: functional
[15] = Antioxidant activity assessed as trolox equivalent of ABTS radical cation scavenging activity measured after 6 mins by UV spectrophotometeric analysis; type: functional
[16] = Antioxidant activity assessed as trolox equivalent of ORAC radical scavenging activity by ORAC-FL assay; type: functional
[17] = Antioxidant activity assessed as DPPH radical scavenging activity measured for 30 mins in dark by UV-Vis spectrophotometric analysis; type: functional
[18] = biological target: Amyloid-beta precursor protein (Homo sapiens) (UniProt P05067); experiment: Inhibition of amyloid beta (1 to 42) (unknown origin) self aggregation assessed as reduction in fluorescence intensity at 50 uM incubated for 24 hrs by ThT-based fluorimetric assay
HepG2 [19] = experiment: Cytotoxicity against human HepG2 cells assessed reduction in cell viability at 1000 uM by MTT assay; type: toxicity, cell-based; conditions: hepg2, 1000 µM
[20] = Antioxidant activity of compound assessed as trolox equivalent of AAPH radical scavenging activity preincubated for 15 mins followed by AAPH addition and measured for 60 mins by ORAC-FL assay; type: functional; conditions: time 75.0 min
Acetylcholinesterase [21] = biological target: T2, Acetylcholinesterase; experiment: Inhibition of human AchE preincubated for 20 mins followed by substrate addition using acetylthiocholine iodide as substrate by Ellman's method
SH-SY5Y [22] = experiment: Neuroprotective activity against amyloid beta (1 to 42)-induced cytotoxicity in human SH-SY5Y cells assessed as increase in cell viability at 10 uM incubated for 24 hrs by MTT assay; type: functional
HepG2 [23] = experiment: Cytotoxicity against human HepG2 cells assessed reduction in cell viability at 1 uM by MTT assay; type: toxicity, cell-based; conditions: hepg2, 1 µM
Cholinesterase [24] = biological target: T3, Cholinesterase; experiment: Inhibition of equine BuChE by Ellman's method

T2 sequence (P22303 whole entry): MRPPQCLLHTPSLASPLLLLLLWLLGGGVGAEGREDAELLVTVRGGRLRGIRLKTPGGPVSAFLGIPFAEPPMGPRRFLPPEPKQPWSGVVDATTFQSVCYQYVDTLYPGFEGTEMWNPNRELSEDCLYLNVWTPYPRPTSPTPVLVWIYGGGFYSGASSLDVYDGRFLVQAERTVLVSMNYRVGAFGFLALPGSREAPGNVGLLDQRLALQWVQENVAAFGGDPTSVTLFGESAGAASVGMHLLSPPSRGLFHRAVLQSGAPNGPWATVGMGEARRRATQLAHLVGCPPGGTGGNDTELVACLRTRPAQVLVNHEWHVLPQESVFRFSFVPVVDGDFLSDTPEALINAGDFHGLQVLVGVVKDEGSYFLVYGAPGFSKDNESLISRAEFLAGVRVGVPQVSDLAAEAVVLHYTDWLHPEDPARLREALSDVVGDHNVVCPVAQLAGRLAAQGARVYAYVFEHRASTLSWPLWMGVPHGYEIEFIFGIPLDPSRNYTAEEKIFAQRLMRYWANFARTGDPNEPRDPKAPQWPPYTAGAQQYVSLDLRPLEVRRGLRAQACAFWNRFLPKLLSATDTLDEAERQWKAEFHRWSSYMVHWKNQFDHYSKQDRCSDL
T3 sequence (P81908 whole entry): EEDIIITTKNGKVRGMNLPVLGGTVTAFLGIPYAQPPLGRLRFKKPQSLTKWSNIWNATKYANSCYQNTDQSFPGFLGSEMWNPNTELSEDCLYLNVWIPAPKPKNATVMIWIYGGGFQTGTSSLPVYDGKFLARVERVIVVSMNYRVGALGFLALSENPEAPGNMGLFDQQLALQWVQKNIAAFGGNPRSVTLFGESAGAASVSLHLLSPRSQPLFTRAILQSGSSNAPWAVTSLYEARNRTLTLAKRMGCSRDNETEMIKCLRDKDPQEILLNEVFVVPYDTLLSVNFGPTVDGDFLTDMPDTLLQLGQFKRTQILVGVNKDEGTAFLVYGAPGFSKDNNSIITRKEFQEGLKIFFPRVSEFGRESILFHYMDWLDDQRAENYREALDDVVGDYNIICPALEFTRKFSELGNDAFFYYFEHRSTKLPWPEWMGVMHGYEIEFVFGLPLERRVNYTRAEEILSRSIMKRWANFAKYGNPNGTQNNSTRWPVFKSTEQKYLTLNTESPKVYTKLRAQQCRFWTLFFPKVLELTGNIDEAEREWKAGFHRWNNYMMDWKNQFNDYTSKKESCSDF
T1 sequence (P06276 whole entry): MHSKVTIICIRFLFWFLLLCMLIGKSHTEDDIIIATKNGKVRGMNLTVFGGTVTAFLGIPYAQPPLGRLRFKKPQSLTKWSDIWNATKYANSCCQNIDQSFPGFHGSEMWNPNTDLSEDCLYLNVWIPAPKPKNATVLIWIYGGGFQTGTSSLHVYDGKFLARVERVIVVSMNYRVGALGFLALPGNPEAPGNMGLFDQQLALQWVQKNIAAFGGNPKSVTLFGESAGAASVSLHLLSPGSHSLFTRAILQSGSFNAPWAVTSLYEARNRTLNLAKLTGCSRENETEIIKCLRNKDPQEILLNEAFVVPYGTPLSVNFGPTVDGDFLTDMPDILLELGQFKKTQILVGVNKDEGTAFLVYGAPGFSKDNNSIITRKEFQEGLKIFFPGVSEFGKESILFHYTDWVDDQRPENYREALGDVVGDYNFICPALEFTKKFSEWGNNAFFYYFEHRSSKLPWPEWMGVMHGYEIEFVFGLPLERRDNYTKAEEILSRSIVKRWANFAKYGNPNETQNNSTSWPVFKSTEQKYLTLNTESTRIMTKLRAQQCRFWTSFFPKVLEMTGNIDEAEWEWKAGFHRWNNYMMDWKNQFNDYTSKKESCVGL
Amyloid-beta precursor protein (Homo sapiens), sequence (P05067 whole entry): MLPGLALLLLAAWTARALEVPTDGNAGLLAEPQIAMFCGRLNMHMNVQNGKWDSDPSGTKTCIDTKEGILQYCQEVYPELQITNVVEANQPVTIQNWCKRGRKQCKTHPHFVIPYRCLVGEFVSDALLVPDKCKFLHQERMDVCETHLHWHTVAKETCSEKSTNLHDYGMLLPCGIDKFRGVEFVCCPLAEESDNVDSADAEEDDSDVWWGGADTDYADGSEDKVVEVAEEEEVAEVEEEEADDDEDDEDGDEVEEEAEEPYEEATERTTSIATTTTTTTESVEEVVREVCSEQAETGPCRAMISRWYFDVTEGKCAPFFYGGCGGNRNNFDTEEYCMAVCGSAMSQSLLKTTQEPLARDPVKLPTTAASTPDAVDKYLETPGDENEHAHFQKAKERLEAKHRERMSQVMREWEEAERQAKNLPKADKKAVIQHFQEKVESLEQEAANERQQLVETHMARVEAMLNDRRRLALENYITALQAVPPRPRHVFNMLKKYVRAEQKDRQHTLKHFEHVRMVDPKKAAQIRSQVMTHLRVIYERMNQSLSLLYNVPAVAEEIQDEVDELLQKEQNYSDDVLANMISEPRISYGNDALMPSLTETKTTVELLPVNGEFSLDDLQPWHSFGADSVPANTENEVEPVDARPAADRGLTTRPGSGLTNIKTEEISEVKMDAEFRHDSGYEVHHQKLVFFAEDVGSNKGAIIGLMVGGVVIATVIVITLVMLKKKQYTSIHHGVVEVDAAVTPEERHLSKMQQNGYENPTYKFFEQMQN
Beta-secretase 1, sequence (P56817 whole entry): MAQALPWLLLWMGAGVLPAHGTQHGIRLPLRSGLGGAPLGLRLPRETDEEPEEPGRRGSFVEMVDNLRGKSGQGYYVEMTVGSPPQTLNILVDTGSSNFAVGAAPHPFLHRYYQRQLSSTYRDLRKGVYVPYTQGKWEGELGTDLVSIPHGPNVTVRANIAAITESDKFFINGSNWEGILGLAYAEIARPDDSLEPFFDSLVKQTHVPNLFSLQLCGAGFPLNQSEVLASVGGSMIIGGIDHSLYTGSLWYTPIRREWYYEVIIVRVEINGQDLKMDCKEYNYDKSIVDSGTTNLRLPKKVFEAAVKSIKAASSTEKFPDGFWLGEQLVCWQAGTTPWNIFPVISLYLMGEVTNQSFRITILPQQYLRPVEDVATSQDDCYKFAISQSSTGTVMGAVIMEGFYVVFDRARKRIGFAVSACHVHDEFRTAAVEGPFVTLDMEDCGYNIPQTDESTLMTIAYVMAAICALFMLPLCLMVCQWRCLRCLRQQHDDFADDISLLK
Acetylcholinesterase (Electrophorus electricus, UniProt O42275), sequence (O42275 whole entry): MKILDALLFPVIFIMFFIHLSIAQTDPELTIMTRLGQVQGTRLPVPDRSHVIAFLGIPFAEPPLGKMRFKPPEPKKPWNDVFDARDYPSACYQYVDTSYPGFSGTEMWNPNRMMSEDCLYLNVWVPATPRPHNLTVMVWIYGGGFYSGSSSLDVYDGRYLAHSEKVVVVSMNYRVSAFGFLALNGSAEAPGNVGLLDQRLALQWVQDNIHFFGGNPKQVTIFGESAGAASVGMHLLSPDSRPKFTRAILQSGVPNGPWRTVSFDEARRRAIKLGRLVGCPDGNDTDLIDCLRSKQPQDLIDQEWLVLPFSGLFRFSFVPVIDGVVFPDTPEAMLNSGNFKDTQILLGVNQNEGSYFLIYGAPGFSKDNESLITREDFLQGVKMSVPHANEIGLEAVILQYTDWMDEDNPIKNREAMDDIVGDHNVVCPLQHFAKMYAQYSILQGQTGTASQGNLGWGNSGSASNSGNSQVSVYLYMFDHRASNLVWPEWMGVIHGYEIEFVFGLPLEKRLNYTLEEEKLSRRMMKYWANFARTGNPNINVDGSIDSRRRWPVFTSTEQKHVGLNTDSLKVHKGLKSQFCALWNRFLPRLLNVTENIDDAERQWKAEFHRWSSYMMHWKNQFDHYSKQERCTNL

## COc1cc(/C=C/c2nnc(-c3ccc(OC(F)(F)F)cc3)o2)ccc1O
Beta-secretase 1
  IC50: 210 nM
Cholinesterase [1]
  IC50: 210 nM
Acetylcholinesterase [2]
  IC50: 92 nM
SH-SY5Y [3]
  Activity: 65.11%

## COC(=O)/C=C/c1ccc(OCCCCCN2CCN(CC(=O)Nc3c4c(nc5ccccc35)CCCC4)CC2)c(OC)c1
[4]
  inhibition: 37.2%

## O=C(/C=C/CCc1ccc2c(c1)OCO2)NCCCNc1c2c(nc3ccccc13)CCCC2
[5]
  inhibition: 72.2%
Acetylcholinesterase [6]
  IC50: 130 nM
[7]
  Activity: 20.8%

## O=C(/C=C/c1ccc(O)c(O)c1)NCCCCCC[P+](c1ccccc1)(c1ccccc1)c1ccccc1
Cholinesterase [8]
  IC50: 150 nM

## O=C(/C=C/c1ccccc1)Oc1ccc2c(c1)O[C@H](c1ccc(O)c(O)c1)[C@@H](O)C2=O
HT-22
  Activity: 40%

## O=C(CCCCC1CCSS1)O[C@H]1C[C@H]2O[C@H](OC(=O)NCc3ccccc3)C[C@H]2O1 (some centres not stated)
Cholinesterase [9]
  IC50: 150 nM

## COc1ccc(/C=C/C(=O)Nc2cc[n+](Cc3cccc(F)c3)cc2)cc1OC
Cholinesterase [10]
  IC50: 4.8 nM
Cholinesterase [11]
  IC50: 3.1 nM
[12]
  inhibition: 63.4%

## COCCCCCCCCCCCCCCCCCCOC(=O)/C=C/c1ccc(O)c(OC)c1
[13]
  Activity: 77.9%

## COc1cc(/C=C/C(=O)NCCC2CCN(Cc3ccccc3)CC2)ccc1O
[14]
  IC50: 34.1 µM
[15]
  Activity: 1.39 equiv

## O=C1c2c(O)cc(O)cc2O[C@H](c2ccc(O)c(O)c2)[C@H]1O [(+)-TAXIFOLIN]
HT-22
  Activity: 10%

## COc1cc(/C=C/C(=O)O[C@H]2C[C@H]3O[C@H](OC(=O)NCc4ccccc4)C[C@H]3O2)ccc1O
[16]
  Activity: 0.635 equiv

## C=CCc1ccc(OC(=O)/C=C/c2ccc(O)c(O)c2)c(OC)c1
[17]
  IC50: 11.2 µM

## COc1ccc2nc3c(c(NCCCCCCCCN(CC(=O)Nc4ccc5ccccc5c4)C(=O)/C=C/c4ccc(O)c(OC)c4)c2c1)CCCC3
[18]
  inhibition: 65.6%
HepG2 [19]
  Activity: 59.4%
[20]
  Activity: 4.29 equiv
Acetylcholinesterase [21]
  IC50: 22.2 nM
SH-SY5Y [22]
  Activity: 95.1%
HepG2 [23]
  Activity: 98.8%

## COc1ccc2[nH]cc(CCNC(=O)CN(CCC3CCN(Cc4ccccc4)CC3)C(=O)/C=C/c3ccc(O)c(OC)c3)c2c1
[16]
  Activity: 8.71 equiv
Cholinesterase [24]
  IC50: 10.4 nM

## COc1cc(/C=C/c2nnc(-c3ccc(C(F)(F)F)cc3)o2)ccc1O
Beta-secretase 1
  IC50: 255 nM
Cholinesterase [1]
  IC50: 255 nM
Acetylcholinesterase [2]
  IC50: 68 nM
SH-SY5Y [3]
  Activity: 70.45%
